We go through 1 compound from patent US20230062278A1, “COMPOUNDS FOR THE TREATMENT OF MYELOFIBROSIS” (ACTUATE THERAPEUTICS, INC., priority 2019, published 2023).

The test system of experiment [1] is renal cell carcinoma cell lines. The settings on record: renal cell carcinoma cell lines (Pal 2014); cited from earlier work.
Experiment [2] relates to peripheral blood mononuclear cells from MF patients. The experiment in a line: ex vivo colony assay in methylcellulose, primary cells from MF patients. Type of experiment: cell-based, human. The protocol:
(§1) In order to study the effects of 9-ING-41 (alone and in combination with Ruxolitinib) on growth and proliferation in MF, ex vivo colony assays were conducted using primary cells from patients with previously untreated MF and normal bone marrow. The experiments were designed to assess the number, size, and morphology of stem/progenitor cells present in blood both with and without treatment.
(§2) Peripheral blood mononuclear cells from MF patients and bone marrow from healthy patients (control) were plated in methylcellulose in duplicate, containing cytokines, in the presence of either DMSO only, 9-ING-41 only, or a combination of 9-ING-41 and Ruxolitinib (0.05uM). Colonies were counted ten days later, and colony growth frequency, distribution, and morphology were calculated.

Experiment [3] has as its system bone marrow from healthy patients. The experiment in a line: ex vivo colony assay in methylcellulose, normal bone marrow (control). The settings on record: 9-ING-41 alone. Type of experiment: cell-based, human. The procedure:
as §1, §2

Consider `Cn1cc(C2=C(c3coc4ccc(F)cc34)C(=O)NC2=O)c2cc3c(cc21)OCO3` [9-ING-41, 3-(5-fluorobenzofuran-3-yl)-4-(5-methyl-5H-[1,3]dioxolo[4,5-f]indol-7-yl)pyrrole-2,5-dione], for which the “antiproliferative activity: cell-cycle effect” value in experiment [1] is “G0-G1 and G2-M phase arrest”. For the same compound, in experiment [2] (9-ING-41 only, MF cases as compared to normal, counted after ten days, FIGS. 1A, 1D, 2A, 2C), the “primitive granulocytic/erythroid/macrophage/monocyte (GEMM) colony growth” value was “increased relative to 9-ING-41 concentration”. Further, in experiment [2] (MF cases 1 and 2, Ruxolitinib 0.05 µM where combined), the “size and presence of primitive colonies” value is “increase in very large, fully differentiated primitive colonies”. The “presence of erythroid (BFU-E), granulocytic (CFU-G) and granulocytic/monocytic (CFU-GM) colonies” value in experiment [2] (after addition of 9-ING-41, colonies counted ten days after plating, vs DMSO) is on record as “remained proportionally the same”. Also, the colony size result in experiment [3] was “modest increase in colony size”.
